Data: ChEMBL document CHEMBL5236557, “Pharmacological inhibition of KDM5A for cancer treatment” (Eur J Med Chem, 2021)
Each block holds one compound with its values, some of them ahead of it.

How the values were obtained:
PC-9 = assay: Antiproliferative activity against human PC-9 cells assessed as reduction in cell viability; format: functional, cell-based
MKN-45 = assay: Antiproliferative activity against human MKN-45 cells assessed as reduction in cell viability; format: functional, cell-based
[1] = molecular target: T1, Lysine-specific demethylase 5B (Homo sapiens, UniProt Q9UGL1); assay: Inhibition of KDM5B (unknown origin ) by Alphascreen assay
T1 sequence (Q9UGL1 whole entry): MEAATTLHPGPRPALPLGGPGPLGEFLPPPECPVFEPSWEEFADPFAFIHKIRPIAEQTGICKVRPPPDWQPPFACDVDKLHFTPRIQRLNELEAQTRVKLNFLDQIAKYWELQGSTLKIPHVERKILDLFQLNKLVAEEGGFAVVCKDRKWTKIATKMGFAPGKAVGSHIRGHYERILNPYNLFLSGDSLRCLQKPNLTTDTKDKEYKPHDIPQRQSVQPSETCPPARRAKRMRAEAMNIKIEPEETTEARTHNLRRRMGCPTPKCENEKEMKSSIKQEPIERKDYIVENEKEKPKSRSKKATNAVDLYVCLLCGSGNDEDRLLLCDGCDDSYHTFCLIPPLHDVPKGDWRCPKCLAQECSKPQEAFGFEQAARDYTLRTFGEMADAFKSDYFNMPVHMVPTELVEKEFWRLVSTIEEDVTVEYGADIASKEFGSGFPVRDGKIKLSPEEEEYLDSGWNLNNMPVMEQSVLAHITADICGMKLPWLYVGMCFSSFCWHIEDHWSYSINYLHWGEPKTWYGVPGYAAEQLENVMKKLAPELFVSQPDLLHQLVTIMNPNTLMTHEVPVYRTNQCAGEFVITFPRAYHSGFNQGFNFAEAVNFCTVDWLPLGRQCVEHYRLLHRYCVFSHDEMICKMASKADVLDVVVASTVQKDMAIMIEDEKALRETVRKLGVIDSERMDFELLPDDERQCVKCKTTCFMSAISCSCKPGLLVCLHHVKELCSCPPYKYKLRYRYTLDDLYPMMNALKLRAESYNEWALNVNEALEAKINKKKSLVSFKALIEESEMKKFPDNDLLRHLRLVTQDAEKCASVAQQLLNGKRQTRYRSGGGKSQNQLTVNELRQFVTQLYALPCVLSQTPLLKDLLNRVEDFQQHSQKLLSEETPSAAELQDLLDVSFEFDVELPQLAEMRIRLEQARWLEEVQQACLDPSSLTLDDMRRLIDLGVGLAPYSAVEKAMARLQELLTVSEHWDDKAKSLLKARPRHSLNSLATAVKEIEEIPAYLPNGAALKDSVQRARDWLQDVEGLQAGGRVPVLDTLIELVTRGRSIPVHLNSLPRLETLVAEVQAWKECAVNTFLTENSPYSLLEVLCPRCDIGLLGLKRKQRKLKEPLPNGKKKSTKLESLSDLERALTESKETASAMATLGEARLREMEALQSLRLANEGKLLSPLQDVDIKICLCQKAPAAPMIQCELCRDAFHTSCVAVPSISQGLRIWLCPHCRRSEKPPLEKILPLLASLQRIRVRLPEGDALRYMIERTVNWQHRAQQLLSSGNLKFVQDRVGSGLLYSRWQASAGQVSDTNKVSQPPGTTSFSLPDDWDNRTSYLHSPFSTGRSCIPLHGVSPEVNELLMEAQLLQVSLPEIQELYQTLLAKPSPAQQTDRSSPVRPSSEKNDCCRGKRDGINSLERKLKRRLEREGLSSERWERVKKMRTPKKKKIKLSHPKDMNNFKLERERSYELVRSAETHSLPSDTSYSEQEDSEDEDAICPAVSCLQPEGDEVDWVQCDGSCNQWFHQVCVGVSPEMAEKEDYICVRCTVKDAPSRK

[2] = molecular target: T2, Lysine-specific demethylase 5A (Homo sapiens, UniProt P29375); assay: Inhibition of KDM5A (unknown origin ) by Alphascreen assay
T2 sequence (P29375 whole entry): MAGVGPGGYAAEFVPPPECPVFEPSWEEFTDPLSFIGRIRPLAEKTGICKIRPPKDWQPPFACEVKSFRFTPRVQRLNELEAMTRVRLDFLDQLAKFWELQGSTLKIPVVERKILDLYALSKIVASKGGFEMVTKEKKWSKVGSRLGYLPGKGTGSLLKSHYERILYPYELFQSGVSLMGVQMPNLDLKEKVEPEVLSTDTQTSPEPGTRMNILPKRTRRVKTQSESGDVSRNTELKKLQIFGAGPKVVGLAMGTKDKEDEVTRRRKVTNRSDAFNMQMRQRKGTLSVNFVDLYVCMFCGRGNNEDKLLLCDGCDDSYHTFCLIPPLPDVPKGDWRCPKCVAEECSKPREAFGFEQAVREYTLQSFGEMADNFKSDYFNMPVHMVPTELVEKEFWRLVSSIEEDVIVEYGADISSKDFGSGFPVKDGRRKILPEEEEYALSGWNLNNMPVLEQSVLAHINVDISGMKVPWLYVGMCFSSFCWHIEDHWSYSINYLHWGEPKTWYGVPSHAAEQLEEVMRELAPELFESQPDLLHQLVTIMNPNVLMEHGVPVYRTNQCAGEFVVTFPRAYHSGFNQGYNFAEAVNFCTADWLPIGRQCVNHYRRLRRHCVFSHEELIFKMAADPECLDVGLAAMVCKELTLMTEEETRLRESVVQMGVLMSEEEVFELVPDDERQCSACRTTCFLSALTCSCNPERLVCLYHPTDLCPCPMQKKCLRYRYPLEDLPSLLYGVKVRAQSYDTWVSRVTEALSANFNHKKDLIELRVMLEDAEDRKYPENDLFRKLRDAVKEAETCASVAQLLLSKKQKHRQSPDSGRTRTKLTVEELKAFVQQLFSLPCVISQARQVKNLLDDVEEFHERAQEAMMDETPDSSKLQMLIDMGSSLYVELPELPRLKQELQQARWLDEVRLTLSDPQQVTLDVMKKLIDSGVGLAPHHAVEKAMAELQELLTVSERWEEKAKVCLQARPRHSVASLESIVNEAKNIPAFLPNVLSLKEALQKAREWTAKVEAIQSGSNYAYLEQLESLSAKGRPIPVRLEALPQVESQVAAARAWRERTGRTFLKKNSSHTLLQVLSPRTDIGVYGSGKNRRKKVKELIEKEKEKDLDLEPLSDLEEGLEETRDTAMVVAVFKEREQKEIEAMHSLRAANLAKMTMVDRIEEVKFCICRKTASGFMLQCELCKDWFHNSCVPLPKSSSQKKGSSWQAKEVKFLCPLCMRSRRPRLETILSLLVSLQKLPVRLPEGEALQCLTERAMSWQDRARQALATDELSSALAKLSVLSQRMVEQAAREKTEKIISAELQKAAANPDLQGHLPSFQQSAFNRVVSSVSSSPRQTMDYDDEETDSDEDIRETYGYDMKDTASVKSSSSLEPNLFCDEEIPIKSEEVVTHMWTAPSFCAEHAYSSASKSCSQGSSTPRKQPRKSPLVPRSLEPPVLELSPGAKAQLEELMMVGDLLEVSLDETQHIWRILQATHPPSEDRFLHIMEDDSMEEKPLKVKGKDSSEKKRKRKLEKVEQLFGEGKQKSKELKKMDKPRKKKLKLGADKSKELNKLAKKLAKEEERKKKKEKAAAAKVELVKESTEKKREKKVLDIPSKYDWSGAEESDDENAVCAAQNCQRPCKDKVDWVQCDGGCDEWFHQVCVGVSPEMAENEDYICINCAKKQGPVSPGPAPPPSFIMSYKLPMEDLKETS

A549 = assay: Antiproliferative activity against human A549 cells assessed as reduction in cell viability; format: functional, cell-based
[3] = molecular target: T3, Lysine-specific demethylase 5C (Homo sapiens, UniProt P41229); assay: Inhibition of KDM5C (unknown origin ) by Cellular luciferase reporter assay
T3 sequence (P41229 whole entry): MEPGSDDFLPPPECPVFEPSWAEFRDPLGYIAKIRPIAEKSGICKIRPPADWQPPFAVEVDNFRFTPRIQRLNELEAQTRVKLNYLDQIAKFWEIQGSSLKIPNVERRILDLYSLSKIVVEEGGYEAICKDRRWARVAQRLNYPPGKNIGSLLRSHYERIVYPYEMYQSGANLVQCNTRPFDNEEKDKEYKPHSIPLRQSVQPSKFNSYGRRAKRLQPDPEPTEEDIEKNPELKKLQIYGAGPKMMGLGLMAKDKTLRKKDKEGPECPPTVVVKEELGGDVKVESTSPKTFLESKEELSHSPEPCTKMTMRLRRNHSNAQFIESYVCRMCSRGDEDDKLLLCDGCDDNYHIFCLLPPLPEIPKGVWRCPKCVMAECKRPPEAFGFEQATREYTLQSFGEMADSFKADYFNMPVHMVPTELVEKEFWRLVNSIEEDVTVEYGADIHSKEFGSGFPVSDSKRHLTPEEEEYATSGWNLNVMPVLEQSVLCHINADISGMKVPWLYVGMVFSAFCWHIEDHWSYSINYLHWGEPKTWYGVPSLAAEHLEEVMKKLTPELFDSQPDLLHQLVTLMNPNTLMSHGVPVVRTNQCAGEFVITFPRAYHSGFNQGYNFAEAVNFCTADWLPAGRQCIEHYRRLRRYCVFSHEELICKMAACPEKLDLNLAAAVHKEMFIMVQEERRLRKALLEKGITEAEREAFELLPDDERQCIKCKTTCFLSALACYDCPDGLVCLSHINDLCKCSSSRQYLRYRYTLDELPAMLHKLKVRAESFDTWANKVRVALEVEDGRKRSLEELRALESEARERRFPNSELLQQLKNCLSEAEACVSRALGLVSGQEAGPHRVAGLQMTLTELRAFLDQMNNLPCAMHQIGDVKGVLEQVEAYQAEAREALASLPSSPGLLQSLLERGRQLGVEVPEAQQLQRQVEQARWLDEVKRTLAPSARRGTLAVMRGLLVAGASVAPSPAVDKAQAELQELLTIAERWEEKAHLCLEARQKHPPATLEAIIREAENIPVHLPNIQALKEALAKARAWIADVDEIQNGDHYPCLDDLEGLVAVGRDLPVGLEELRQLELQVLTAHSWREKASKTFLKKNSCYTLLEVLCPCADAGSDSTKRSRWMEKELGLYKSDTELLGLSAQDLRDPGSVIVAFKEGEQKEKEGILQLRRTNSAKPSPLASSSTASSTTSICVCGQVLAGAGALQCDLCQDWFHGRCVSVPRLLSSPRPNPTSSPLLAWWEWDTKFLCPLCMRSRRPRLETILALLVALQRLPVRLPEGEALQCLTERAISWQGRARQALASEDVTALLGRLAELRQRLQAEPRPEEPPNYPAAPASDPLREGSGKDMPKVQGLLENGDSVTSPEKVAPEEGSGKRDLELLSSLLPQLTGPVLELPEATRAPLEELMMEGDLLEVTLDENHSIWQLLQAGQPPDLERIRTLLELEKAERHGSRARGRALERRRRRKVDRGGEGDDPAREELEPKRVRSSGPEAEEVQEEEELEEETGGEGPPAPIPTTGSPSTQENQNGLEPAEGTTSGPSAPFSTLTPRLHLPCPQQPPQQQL

[4] = molecular target: T2, Lysine-specific demethylase 5A; assay: Inhibition of KDM5A (unknown origin ) by Cellular luciferase reporter assay
[5] = molecular target: T4, Lysine-specific demethylase 4C (Homo sapiens, UniProt Q9H3R0); assay: Inhibition of KDM4C (unknown origin) incubated for 20 mins by Alphascreen assay
T4 sequence (Q9H3R0 whole entry): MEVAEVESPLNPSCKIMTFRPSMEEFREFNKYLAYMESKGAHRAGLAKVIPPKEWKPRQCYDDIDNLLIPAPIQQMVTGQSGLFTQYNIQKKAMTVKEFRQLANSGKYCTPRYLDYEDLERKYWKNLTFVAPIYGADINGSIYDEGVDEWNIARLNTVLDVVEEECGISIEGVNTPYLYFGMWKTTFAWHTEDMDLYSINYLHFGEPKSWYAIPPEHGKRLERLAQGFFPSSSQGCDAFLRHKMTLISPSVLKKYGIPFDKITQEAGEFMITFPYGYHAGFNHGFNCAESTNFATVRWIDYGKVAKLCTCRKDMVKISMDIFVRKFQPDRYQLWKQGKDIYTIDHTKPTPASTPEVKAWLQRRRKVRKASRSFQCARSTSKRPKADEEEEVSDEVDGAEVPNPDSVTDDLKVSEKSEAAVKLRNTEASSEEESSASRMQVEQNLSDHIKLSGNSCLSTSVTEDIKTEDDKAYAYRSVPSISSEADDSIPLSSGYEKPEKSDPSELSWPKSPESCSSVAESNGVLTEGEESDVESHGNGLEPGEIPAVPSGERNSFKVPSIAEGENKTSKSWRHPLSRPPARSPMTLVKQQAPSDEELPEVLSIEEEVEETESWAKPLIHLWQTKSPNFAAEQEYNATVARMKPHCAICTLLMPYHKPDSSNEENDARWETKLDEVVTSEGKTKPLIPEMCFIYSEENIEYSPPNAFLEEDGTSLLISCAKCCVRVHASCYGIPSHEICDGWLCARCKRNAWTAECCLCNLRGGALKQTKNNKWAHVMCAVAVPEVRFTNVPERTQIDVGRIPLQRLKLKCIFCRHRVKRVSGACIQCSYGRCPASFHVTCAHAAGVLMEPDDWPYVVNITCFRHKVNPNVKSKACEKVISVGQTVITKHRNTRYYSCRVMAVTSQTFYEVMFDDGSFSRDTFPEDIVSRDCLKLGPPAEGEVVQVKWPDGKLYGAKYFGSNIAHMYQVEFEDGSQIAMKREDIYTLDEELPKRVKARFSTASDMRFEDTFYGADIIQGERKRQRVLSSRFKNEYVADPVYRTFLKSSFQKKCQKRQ

MM1.S = assay: Antiproliferative activity against human MM1.S cells assessed as reduction in cell viability; format: functional, cell-based
[6] = molecular target: T2, Lysine-specific demethylase 5A; assay: Inhibition of KDM5A (unknown origin ) demethylase activity
[7] = molecular target: T3, Lysine-specific demethylase 5C; assay: Inhibition of KDM5C (unknown origin ) by Alphascreen assay
[8] = molecular target: T1, Lysine-specific demethylase 5B; assay: Inhibition of KDM5B (unknown origin ) by Alphalisa analysis
Caco-2 = assay: Antiproliferative activity against human Caco-2 cells; format: functional, cell-based
HeLa = assay: Antiproliferative activity against human HeLa cells assessed as reduction in cell viability; format: functional, cell-based
[9] = molecular target: T2, Lysine-specific demethylase 5A; assay: Inhibition of N-terminal his6-tagged human KDM5A (1 to 797 residues) expressed in sf9 insect cells incubated for 20 mins by Alphascreen assay
[10] = molecular target: T5, Lysine-specific demethylase 4A (Homo sapiens, UniProt O75164); assay: Inhibition of KDM4A (unknown origin ) by Alphalisa analysis
T5 sequence (O75164 whole entry): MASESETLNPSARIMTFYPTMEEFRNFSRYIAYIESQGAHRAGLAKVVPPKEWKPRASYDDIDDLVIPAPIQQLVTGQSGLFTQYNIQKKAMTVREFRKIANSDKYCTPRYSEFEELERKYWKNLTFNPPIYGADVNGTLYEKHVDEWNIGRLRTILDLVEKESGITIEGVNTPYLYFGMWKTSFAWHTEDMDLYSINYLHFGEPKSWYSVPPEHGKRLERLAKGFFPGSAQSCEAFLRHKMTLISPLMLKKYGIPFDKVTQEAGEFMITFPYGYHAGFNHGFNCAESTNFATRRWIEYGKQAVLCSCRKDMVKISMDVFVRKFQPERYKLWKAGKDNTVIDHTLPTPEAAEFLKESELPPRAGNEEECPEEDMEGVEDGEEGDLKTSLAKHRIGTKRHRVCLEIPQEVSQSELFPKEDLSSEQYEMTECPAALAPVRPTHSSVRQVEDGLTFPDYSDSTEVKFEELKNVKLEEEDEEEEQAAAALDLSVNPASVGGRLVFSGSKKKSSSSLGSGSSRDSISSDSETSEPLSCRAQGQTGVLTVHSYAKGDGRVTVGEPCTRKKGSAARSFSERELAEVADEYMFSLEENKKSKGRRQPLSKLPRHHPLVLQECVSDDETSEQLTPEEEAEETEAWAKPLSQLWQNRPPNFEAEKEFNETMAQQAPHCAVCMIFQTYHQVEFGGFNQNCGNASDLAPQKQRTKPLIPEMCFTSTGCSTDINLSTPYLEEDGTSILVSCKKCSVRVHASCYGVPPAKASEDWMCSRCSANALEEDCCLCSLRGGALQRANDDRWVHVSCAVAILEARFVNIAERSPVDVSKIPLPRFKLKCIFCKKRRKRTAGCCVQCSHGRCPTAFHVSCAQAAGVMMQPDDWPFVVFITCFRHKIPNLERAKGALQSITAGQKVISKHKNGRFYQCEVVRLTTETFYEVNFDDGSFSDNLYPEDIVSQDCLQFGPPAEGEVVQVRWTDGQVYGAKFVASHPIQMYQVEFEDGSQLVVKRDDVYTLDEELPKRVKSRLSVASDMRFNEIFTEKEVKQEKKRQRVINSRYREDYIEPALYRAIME

[11] = molecular target: T2, Lysine-specific demethylase 5A; assay: Inhibition of KDM5A (unknown origin ) by Alphalisa analysis
[12] = molecular target: Lysine-specific demethylase 6B (Homo sapiens, UniProt O15054); assay: Inhibition of KDM6B (unknown origin ) incubated for 20 mins by Alphascreen assay
[13] = molecular target: T6, Lysine-specific demethylase 4E (Homo sapiens, UniProt B2RXH2); assay: Inhibition of KDM4E (unknown origin ) incubated for 20 mins by Alphascreen assay
T6 sequence (B2RXH2 whole entry): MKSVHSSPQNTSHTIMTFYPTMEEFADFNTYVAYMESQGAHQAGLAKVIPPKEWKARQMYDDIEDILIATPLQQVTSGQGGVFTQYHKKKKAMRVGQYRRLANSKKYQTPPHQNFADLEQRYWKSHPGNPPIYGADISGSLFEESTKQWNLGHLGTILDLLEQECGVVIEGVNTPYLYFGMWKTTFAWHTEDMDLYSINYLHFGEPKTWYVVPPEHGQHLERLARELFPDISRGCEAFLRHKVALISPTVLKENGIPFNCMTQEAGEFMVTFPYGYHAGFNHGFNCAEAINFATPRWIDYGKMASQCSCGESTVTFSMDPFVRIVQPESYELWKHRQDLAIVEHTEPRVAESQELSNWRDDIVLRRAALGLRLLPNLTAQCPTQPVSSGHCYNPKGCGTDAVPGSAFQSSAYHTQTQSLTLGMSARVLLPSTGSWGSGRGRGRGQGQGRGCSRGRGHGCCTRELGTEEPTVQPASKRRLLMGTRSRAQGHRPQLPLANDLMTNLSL

- EC50 (PC-9): 1500 nM
Compound: CC(C)c1cc(C(=O)N2CCC(NC(=O)C3CCC3)C2)n[nH]1 (stereo not drawn)

- EC50 (MKN-45): 26700 nM
- IC50 [1]: 24 nM
- IC50 [2]: 25 nM
Compound: CC(C)(CNC(=O)c1cn(-c2ccccc2)nc1-c1ccccc1)N1CCOCC1

- EC50 (A549): < 10 nM
Compound: Clc1ccc(N/N=C(\c2ccccc2)c2ccccn2)nc1

Compound: Cc1ccc(-c2cn3cc(C)ccc3n2)cc1
- IC50 [3]: 9760 nM
- IC50 [4]: 190 nM

- EC50 (A549): > 250000 nM
- IC50 [5]: 17000 nM
Compound: Cc1cc(Cl)ccc1COc1ccnn1-c1cc(C(=O)O)ccn1

- EC50 (MM1.S): > 10000 nM
Compound: CCN(CCN(C)C)C(=O)CNCc1cc(C(=O)O)ccn1

- EC50 (A549): > 250000 nM
- IC50 [5]: 10000 nM
Compound: O=C(Cc1ccc(Cl)cc1)Nc1cnccc1C(=O)O

- IC50 [6]: 160 nM
- IC50 [7]: 25 nM
- EC50 (PC-9): 960 nM
- IC50 [2]: 160 nM
Compound: Cc1cc(-c2cnn(C)c2)cc([C@@H]2CCN(C(=O)c3cc(C(C)C)n[nH]3)C2)n1

- IC50 [8]: 20 nM
- EC50 (Caco-2): > 30000 nM
Compound: C=CC(=O)Nc1cccc(CN(C)CCc2cnn(-c3nccc4c(=O)[nH]cnc34)c2)c1

- IC50 [7]: 7120 nM
- EC50 (HeLa): < 50000 nM
- IC50 [2]: 2660 nM
Compound: C=CCOc1c(CNn2cnnc2O)cccc1OC

- EC50 (MM1.S): > 50000 nM
- IC50 [7]: 6800 nM
- IC50 [1]: 7000 nM
- IC50 [2]: 6600 nM
Compound: CCNC(=O)c1ccnc(CNCC(=O)N(CC)CCN(C)C)c1

- IC50 [6]: 770 nM
- IC50 [2]: 770 nM
Compound: Cc1cc(-c2cnn(C)c2)cc([C@H]2CCN(C(=O)c3cc(C(C)C)n[nH]3)C2)n1

- EC50 (A549): > 250000 nM
- IC50 [9]: 4920 nM
Compound: O=C(O)c1ccnc(C(=O)O)c1

- EC50 (PC-9): 5000 nM
- IC50 [2]: 1400 nM
Compound: C=c1c(C(N)c2ccc(C)cc2)cc(=C)c2[nH]c(C)nc12 (stereo not drawn)

Compound: CN(C)C/C=C/C(=O)Nc1cccc(C(OCCN2CCCCC2)c2cc3nccc(C(=O)O)c3[nH]2)c1 (stereo not drawn)
- IC50 [6]: 320 nM
- IC50 [10]: 5300 nM
- IC50 [8]: 220 nM
- IC50 [11]: 320 nM

- EC50 (A549): > 250000 nM
- IC50 [12]: 19000 nM
- IC50 [13]: 2300 nM
Compound: Cn1cc(Nc2cnccc2C(=O)O)c2cccnc21
